Test system: Macular Degeneration Animal Model
Assay: Laser-induced macular degeneration animal model, fundus fluorescein angiography
Type: in vivo, Chinchilla rabbits
Conditions: intravitreal injection 2000 μg, n=5
Experimental: Chinchilla rabbits (n=24, male) were raised at a temperature of 23±3° C., relative humidity of 55±15%, ventilation frequency of 10 to 20 times/hr, lighting time of 12 hours, and illuminance of 150 to 300 Lux. The environmental conditions such as temperature/humidity of the animal room, ventilation frequency and illuminance were measured regularly during the raising period. During the acclimation, administration, and observation periods, the rabbits were raised in a stainless-steel breeding box (W500×L800×H500 mm) at 1 animal per breeding box. The breeding boxes were cleaned every day and water bottles were exchanged every day. […]
On the 7th and 14th days after the start of administration in each group, a mydriatic agent (Mydriacyl® Eye Drops 1%) was instilled into the right eye of the rabbits, followed by anesthetizing. […] The efficacies were evaluated through retinal fundus fluorescein angiography. It was confirmed that the fluorescence intensity levels on days 7 and 14 in all macular degeneration-induced groups were higher than those in the normal control groups, G5 and G6 (p<0.001 or p<0.05).
The average fluorescence intensities of the vehicle-administered groups (G7 and G8) were set to 100% and the relative levels (%) of the fluorescence intensities measured in each animal were analyzed. […]

## Aflibercept [Comparative Example 2]
Day 7, relative to vehicle group G7 = 100%
  Fluorescence intensity at Day 7 (%), Mean: 93.345%
Day 14, relative to vehicle group G8 = 100%
  Fluorescence intensity at Day 14 (%), Mean: 69.403%

Reference: patent US20250134849A1, “PHARMACEUTICAL COMPOSITION FOR PREVENTING OR TREATING OCULAR DISEASE COMPRISING ENAVOGLIFLOZIN” (DAEWOONG THERAPEUTICS INC., priority 2023, published 2025)
